Structures can show the parent of a compound that is named as a salt.
Test system: fibrous adhesions between the caecum and the sidewall
Assay: Rat caecal-sidewall surgical adhesion model, drug loaded hyaluronic acid film (Example 1)
Format: in vivo
Conditions: for inhibition of all adhesions (zero on the Total Adhesion Value scale) in at least one test animal: agent administered to the cecal-sidewall site
Description: In one embodiment, the efficacy of the given drug or drug combination can be assessed as a reduction of the average Total Adhesion Value (strength×area; “TAV”) of the drug or combination versus a given standard, for example a drug-loaded sodium hyaluronate film versus a sham or a sodium hyaluronate film alone in the rat cecal-sidewall model for surgical fibrous adhesions.
The rat caecal sidewall model of surgical adhesions was used to investigate the effect of administration of each agent discussed herein (hereafter referred to as the drug) for the prevention of post-surgical type of fibrous adhesions. In this model, rats were divided into groups of 4. After surgical trauma, the rats were either untreated, treated with crosslinked hyaluronic acid (HA) film, or crosslinked HA film containing drug at the following concentrations in the film (% w/w):
Animal Studies. […] Only animals that appeared grossly normal (i.e., showing a clean unruffled coat, bright clear eyes and an active posture) were used in the study. Animals were randomly assigned to treatment groups, weighed and anesthetized with isoflurane gas. The abdomen was shaved and cleaned with a skin-antibacterial cleanser (Steri-Stat 2%) and wiped with a chlorohexane soaked gauze. A nick was made in one of the tail veins to elicit a small amount of blood (<100 mL). A white blood cell count was performed on this blood sample. An antibiotic (40,000 IU/kg of depopenicillin) was injected into the right thigh and an analgesic (0.01 mg/kg of buprenorphine) was injected into the left thigh of each rat. A 4 cm incision was made in the skin beginning approximately 2 cm caudal to the linea alba while the muscle was tended with forceps. […] Scraping was in the opposite direction to which the blade was pointing. The scraped caecum was wrapped in saline-soaked gauze. Doynes were used to separate the peritoneal wall from the skin, and the peritoneal wall was inverted using the doynes to expose the inside of the wall. A rectangular injury roughly 1.2 cm by 1.8 cm was made by shallow incisions to the peritoneal wall. The top membrane and a layer of muscle tissue was removed using forceps. The caecum was stitched to the four corners of the rectangle using a 5-0 suture, and without tying off the top two stitches. A piece of film was placed onto the abraded rectangle and then the top two stitches were tied firmly. In the case of the untreated control group, no film was placed over the abraded site. The exposed organs were replaced in the abdomen in such a way as to prevent torsional stress on the intestines. […] A collar was placed around the neck of the animal to prevent it from interfering with the stitches. The rat was placed in a clean cage and warmed with a heating lamp until consciousness was regained.

Row | SMILES | reduction in adhesion score versus control, one-tailed Student's t-test (p<0.05) (5% w/w in HA film) | inhibition of all adhesions (zero on the Total Adhesion Value scale) in at least one test animal | reduction in adhesion score versus control, one-tailed Student's t-test (p<0.05) (2% w/w in HA film)
1 | CCOC(=O)[C@H](CCc1ccccc1)N[C@@H](C)C(=O)N1CCC[C@H]1C(=O)O [enalapril maleate, Enalapril Maleate] | statistically significant | – | –
2 | CN(Cc1cnc2nc(N)nc(N)c2n1)c1ccc(C(=O)N[C@@H](CCC(=O)O)C(=O)O)cc1 [methotrexate, Methotrexate] | – | completely inhibited fibrous adhesions | –
3 | N.N.[Cl][Pt][Cl] [cisplatin, Cisplatin] | – | completely inhibited fibrous adhesions | statistically significant
4 | CC[C@H]1OC(=O)[C@H](C)[C@@H](O[C@H]2C[C@@](C)(OC)[C@@H](O)[C@H](C)O2)[C@H](C)[C@@H](O[C@@H]2O[C@H](C)C[C@H](N(C)C)[C@H]2O)[C@](C)(O)C[C@@H](C)C(=O)[C@H](C)[C@@H](O)[C@]1(C)O [erythromycin, Erythromycin] | statistically significant | – | –
5 | CC(=O)O[C@@]12CO[C@@H]1C[C@H](O)[C@@]1(C)C(=O)[C@H](O)C3=C(C)[C@@H](OC(=O)[C@H](O)[C@@H](NC(=O)OC(C)(C)C)c4ccccc4)C[C@@](O)([C@@H](OC(=O)c4ccccc4)[C@H]21)C3(C)C [docetaxel, Docetaxel] | – | completely inhibited fibrous adhesions | –
